Biological target: T1, human MIF (Homo sapiens, UniProt P14174)
T1 sequence (P14174 2-115 limits assumed): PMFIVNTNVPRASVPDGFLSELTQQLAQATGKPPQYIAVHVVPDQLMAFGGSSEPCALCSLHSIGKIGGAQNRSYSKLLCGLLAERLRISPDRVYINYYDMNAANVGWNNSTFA
Experiment: Depletion of human MIF from cell culture supernatant (sandwich ELISA)
Assay type: cell-based
Details: for removal of MIF from supernatant: after 48 hours, FIG. 129
Description: The ability of bifunctional MIF-binding molecules to mediate the depletion of human MIF from cell culture was investigated. In these assays, human MIF was present at a concentration of 100 nM, and a sandwich ELISA assay was utilized to measure the concentration of human MIF remaining in the cell culture supernatant. The closely related bifunctional molecules MIF-GN3, MIF-PEG2-GN3, and MIF-PEG4-GN3 were used, as well as the structurally dissimilar molecule MIF-NVS-PEG3-GN3. […] Based on the ease of its synthesis and its efficacy in this experiment, MIF-GN3 was utilized for further studies. It was next investigated whether the MIF inhibitor 3w mediates MIF depletion from cell culture supernatant. […] When cells were treated with 3w, no depletion of exogenous MIF protein was observed after 24 hours (FIG. 128B).
Bifunctional molecules containing optimized ASGPR-binding motifs are also capable of mediating MIF depletion from cell culture supernatant (FIG. 129). The MIF-binding molecule MIF-AF1, which contains only a single ASGPR-binding sugar, was not effective at mediating depletion of MIF from supernatant at any concentration tested. It is hypothesized that this is due to the compound's low predicted affinity for ASGPR (μM range). […] At a concentration of either 200 nM or 1 μM, MIF-AF2 mediated nearly 100%/o depletion of MLF from the cell culture supernatant after 48 hours. […] In contrast to these molecules, which utilize optimized synthetic ASGPR ligands, the GalNAc-based molecule MIF-GN3 mediated only 67.0% and 56.0% removal of MIF from supernatant after 48 hours at concentrations of 1 μM and 200 nM, respectively. […] At a concentration of 40 nM (4.0 pmol of molecule), MIF-AF3 mediates the removal of 83.2% of MIF present in the cell culture supernatant, or 8.32 pmol of human MIF protein. Therefore, it was concluded that under the conditions of this experiment, MIF-AF3 mediates the depletion of 2.08 molar equivalents of MIF protein.

CC(=O)N[C@H]1[C@H](OCCOCCOCCNC(=O)CCOCC(COCCC(=O)NCCOCCOCCO[C@@H]2O[C@H](CO)[C@H](O)[C@H](O)[C@H]2NC(C)=O)(COCCC(=O)NCCOCCOCCO[C@@H]2O[C@H](CO)[C@H](O)[C@H](O)[C@H]2NC(C)=O)NC(=O)CNC(=O)CCCOc2ccc3nc(-c4cn(-c5ccc(O)c(F)c5)nn4)ccc3c2)O[C@H](CO)[C@H](O)[C@@H]1O [MIF-GN3]
removal of MIF from supernatant (200 nM): 56.0%
removal of MIF from supernatant (1 μM): 67.0%
depletion of human MIF from cell culture supernatant (human MIF 100 nM, 24 hours, FIG. 128A): effective

From US20250269043A1, “TARGETED BIFUNCTIONAL DEGRADERS” (YALE UNIVERSITY, priority 2019, published 2025)
